From patent US20150050219A1, “COLOURED SOLUTION IN PARTICULAR FOR USE IN SURGICAL METHODS FOR THE TREATMENT OF THE BODIES OF HUMANS OR ANIMALS” (BBS S.r.l., priority 2012, published 2015)

Experiment: density at 20° C.
Format: physicochemical
Settings: temperature of 20° C.
Description: whilst the dye is defined by the formula (V) and is present in a weight ratio of 0.008% to the solvent. In particular, with the solvent consisting of perfluorooctane (VI), the solution has an absorbance equal to 1,403 at a wavelength of 580 nm. Said solution also has a density of 1,756 kg/l at a temperature of 20° C. (substantially equal to that of perfluorooctane alone which, at 20° C., is equal to 1,755).

## FC(F)(F)C(F)(F)C(F)(F)C(F)(F)C(F)(F)C(F)(F)C(F)(F)C(F)(F)F [perfluorooctane]
  density: 1,755 kg/l
